Results: patent publication US8952024B2, “Herbicidal pyrimidone derivatives” (E I du Pont de Nemours and Company, priority 2009, dated 2015)

Tests used:
Assay type in all cases: in vivo
[1] = tested on: wheat (Triticum aestivum); assay: Test A pre-/postemergence plant response
How it was run: (§1)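 Visual injury rating on a 0–100 scale (0 = no effect, 100 = complete control) was made versus untreated controls after about ten days in the greenhouse. Compounds, formulated in a non-phytotoxic solvent mix containing surfactant, were sprayed preemergence onto loam/sand soil and postemergence onto one- to two-leaf plants.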

[2] = tested on: velvetleaf (Abutilon theophrasti); assay: Test A pre-/postemergence plant response
How it was run: as §1

[3] = tested on: barnyardgrass (Echinochloa crus-galli); assay: Test A pre-/postemergence plant response
How it was run: as §1

[4] = tested on: corn (Zea mays); assay: Test A pre-/postemergence plant response
How it was run: as §1

[5] = tested on: giant foxtail (Setaria faberii); assay: Test A pre-/postemergence plant response
How it was run: as §1

[6] = tested on: large crabgrass (Digitaria sanguinalis); assay: Test A pre-/postemergence plant response
How it was run: as §1

[7] = tested on: pigweed (Amaranthus retroflexus); assay: Test A pre-/postemergence plant response
How it was run: as §1

[8] = tested on: morningglory (Ipomoea spp.); assay: Test A pre-/postemergence plant response
How it was run: as §1

[9] = tested on: canarygrass (Phalaris minor); assay: Test B postemergence plant response; conditions: Postemergence
How it was run: (§2)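 Visual ratings from 0 (no effect) to 100 (complete control), made against controls 13–15 days after treatment, kept in a greenhouse. Compounds were applied postemergence to potted plants at the 1- to 4-leaf stage (2–18 cm).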

[10] = tested on: winter barley (Hordeum vulgare); assay: Test B postemergence plant response; conditions: Postemergence
How it was run: as §2

[11] = tested on: windgrass (Apera spica-venti); assay: Test B postemergence plant response; conditions: Postemergence
How it was run: as §2

[12] = tested on: chickweed (Stellaria media); assay: Test B postemergence plant response; conditions: Postemergence
How it was run: as §2

[13] = Postemergence, 125 g ai/ha, 0 to 100 scale where 0 is no effect and 100 is complete control
[14] = Postemergence, 500 g ai/ha, visual injury, 0 to 100 scale (0 no effect, 100 complete control), approx. ten days
[15] = Preemergence, 125 g ai/ha, 0 to 100 scale, 0 = no effect, 100 = complete control
[16] = Preemergence, 500 g ai/ha, 0 to 100 scale, 0 = no effect, 100 = complete control
[17] = 31 g ai/ha, 0 to 100 scale (0 no effect, 100 complete control)
[18] = 62 g ai/ha, scale 0 to 100 (0 no effect, 100 complete control)
[19] = 125 g ai/ha, scale 0 (no effect) to 100 (complete control), 13 to 15 days
[20] = 250 g ai/ha, scale 0 to 100 (0 no effect, 100 complete control), 13 to 15 days

SMILES: CCn1c(-c2ccccc2)ncc(C(=O)C2=C(O)C3CCC(C3)C2=O)c1=O (centres unmarked) [Compound 239]
- Plant response rating, Wheat [1, 13]: 0
- Wheat plant response rating [1, 14]: 0
- Plant response rating, Wheat [1, 15]: 0
- Plant response rating, Wheat [1, 16]: 30
- Plant response rating, Velvetleaf [2, 13]: 100
- Velvetleaf plant response rating [2, 14]: 100
- Plant response rating, Velvetleaf [2, 15]: 80
- Plant response rating, Velvetleaf [2, 16]: 100
- Plant response rating, Barnyardgrass [3, 13]: 90
- Barnyardgrass plant response rating [3, 14]: 90
- Plant response rating, Barnyardgrass [3, 15]: 20
- Plant response rating, Barnyardgrass [3, 16]: 80
- Plant response rating, Corn [4, 13]: 30
- Corn plant response rating [4, 14]: 30
- Plant response rating, Corn [4, 15]: 0
- Plant response rating, Corn [4, 16]: 0
- Plant response rating, Foxtail, Giant [5, 13]: 70
- Foxtail, Giant plant response rating [5, 14]: 80
- Plant response rating, Foxtail, Giant [5, 15]: 20
- Plant response rating, Foxtail, Giant [5, 16]: 70
- Plant response rating, Crabgrass, Large [6, 13]: 80
- Crabgrass, Large plant response rating [6, 14]: 90
- Plant response rating, Crabgrass, Large [6, 15]: 70
- Plant response rating, Crabgrass, Large [6, 16]: 100
- Plant response rating, Pigweed [7, 13]: 80
- Pigweed plant response rating [7, 14]: 90
- Plant response rating, Pigweed [7, 15]: 70
- Plant response rating, Pigweed [7, 16]: 100
- Plant response rating, Morningglory [8, 13]: 100
- Morningglory plant response rating [8, 14]: 100
- Plant response rating, Morningglory [8, 16]: 50
- Plant response rating, Canarygrass [9, 17]: 0
- Plant response rating, Canarygrass [9, 18]: 0
- Plant response rating, Canarygrass [9, 19]: 0
- Plant response rating, Canarygrass [9, 20]: 0
- Plant response rating, Barley [10, 17]: 0
- Plant response rating, Barley [10, 18]: 0
- Plant response rating, Barley [10, 19]: 5
- Plant response rating, Barley [10, 20]: 5
- Plant response rating, Windgrass [11, 17]: 20
- Plant response rating, Windgrass [11, 18]: 30
- Plant response rating, Windgrass [11, 19]: 30
- Plant response rating, Windgrass [11, 20]: 70
- Plant response rating, Chickweed [12, 17]: 90
- Plant response rating, Chickweed [12, 18]: 98
- Plant response rating, Chickweed [12, 19]: 98
- Plant response rating, Chickweed [12, 20]: 100
